Experimental data published in PubChem BioAssay (NCI).
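Dose response: 5 concentrations. Exposure: 48 h. Format: 96-well plates. Endpoint: linear interpolation; highest concentration if not reached. GI50: concentration for 50% inhibition of growth. TGI denotes the concentration required for complete inhibition of growth.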

What was measured:
Assay in all cases: growth of human tumour cells (NCI), 48 h
PC-3 prostate = test system: PC-3 prostate
SNB-19 CNS = test system: SNB-19 CNS
SK-MEL-5 melanoma = test system: SK-MEL-5 melanoma
HCT-15 colon = test system: HCT-15 colon
CAKI-1 renal = test system: CAKI-1 renal
HOP-92 NSCLC = test system: HOP-92 NSCLC
HCT-116 colon = test system: HCT-116 colon
M14 melanoma = test system: M14 melanoma
HOP-62 NSCLC = test system: HOP-62 NSCLC
MDA-MB-231 breast = test system: MDA-MB-231 breast
ACHN renal = test system: ACHN renal
TK-10 renal = test system: TK-10 renal
NCI-H522 lung = test system: NCI-H522 lung
HS 578T breast = test system: HS 578T breast
NCI-H226 lung = test system: NCI-H226 lung
HT29 colon = test system: HT29 colon
UACC-62 melanoma = test system: UACC-62 melanoma
SK-MEL-2 melanoma = test system: SK-MEL-2 melanoma
SF-295 CNS = test system: SF-295 CNS
RPMI-8226 leukemia = test system: RPMI-8226 leukemia
OVCAR-8 ovarian = test system: OVCAR-8 ovarian
EKVX NSCLC = test system: EKVX NSCLC
A498 renal = test system: A498 renal
HL-60(TB) leukemia = test system: HL-60(TB) leukemia
OVCAR-3 ovarian = test system: OVCAR-3 ovarian
CCRF-CEM leukemia = test system: CCRF-CEM leukemia
SNB-75 CNS = test system: SNB-75 CNS
SF-268 CNS = test system: SF-268 CNS
NCI-H23 lung = test system: NCI-H23 lung
MOLT-4 leukemia = test system: MOLT-4 leukemia
UACC-257 melanoma = test system: UACC-257 melanoma
SK-OV-3 ovarian = test system: SK-OV-3 ovarian
786-0 renal = test system: 786-0 renal
RXF 393 renal = test system: RXF 393 renal
SF-539 CNS = test system: SF-539 CNS
NCI-H460 lung = test system: NCI-H460 lung
COLO 205 colon = test system: COLO 205 colon
UO-31 renal = test system: UO-31 renal
BT-549 breast = test system: BT-549 breast
SW-620 colon = test system: SW-620 colon
KM12 colon = test system: KM12 colon
MDA-MB-435 = test system: MDA-MB-435
DU-145 prostate = test system: DU-145 prostate
HCC-2998 colon = test system: HCC-2998 colon
LOX IMVI melanoma = test system: LOX IMVI melanoma
U251 CNS = test system: U251 CNS
SN12C renal = test system: SN12C renal
T-47D breast = test system: T-47D breast
MDA-N = test system: MDA-N
A549 NSCLC = test system: A549 NSCLC
K-562 leukemia = test system: K-562 leukemia
SR leukemia = test system: SR leukemia
OVCAR-4 ovarian = test system: OVCAR-4 ovarian
OVCAR-5 ovarian = test system: OVCAR-5 ovarian
SK-MEL-28 melanoma = test system: SK-MEL-28 melanoma
NCI/ADR-RES ovarian = test system: NCI/ADR-RES ovarian
MALME-3M melanoma = test system: MALME-3M melanoma
IGROV1 ovarian = test system: IGROV1 ovarian
MCF7 breast = test system: MCF7 breast

CC(C)(C)c1ccc(O)c(CN(Cc2cc(C(C)(C)C)ccc2O)C2CCCCC2)c1
TGI (PC-3 prostate): 46.8 µM | TGI (SNB-19 CNS): 41 µM | TGI (SK-MEL-5 melanoma): 28.4 µM | TGI (HCT-15 colon): 36.2 µM | TGI (CAKI-1 renal): > 70.1 µM | TGI (HOP-92 NSCLC): 23.9 µM | TGI (HCT-116 colon): 30.6 µM | TGI (M14 melanoma): 28.4 µM | TGI (HOP-62 NSCLC): 46.5 µM | TGI (MDA-MB-231 breast): 30.4 µM | TGI (ACHN renal): 37.4 µM | TGI (TK-10 renal): 32.4 µM | TGI (NCI-H522 lung): 33.7 µM | TGI (HS 578T breast): 45.3 µM | GI50 (NCI-H226 lung): 28.5 µM | TGI (NCI-H226 lung): > 100 µM | TGI (HT29 colon): 37.1 µM | TGI (UACC-62 melanoma): 31.4 µM | TGI (SK-MEL-2 melanoma): 35.4 µM | TGI (SF-295 CNS): 34 µM | TGI (RPMI-8226 leukemia): 25.1 µM | TGI (OVCAR-8 ovarian): 42 µM | TGI (EKVX NSCLC): > 63.7 µM | TGI (A498 renal): 31 µM | GI50 (HL-60(TB) leukemia): 13.9 µM | TGI (HL-60(TB) leukemia): 33.3 µM | TGI (OVCAR-3 ovarian): 34.9 µM | TGI (CCRF-CEM leukemia): 99.9 µM | TGI (SNB-75 CNS): 51.3 µM | TGI (SF-268 CNS): > 53.9 µM | TGI (NCI-H23 lung): 48.7 µM | TGI (MOLT-4 leukemia): 49.8 µM | TGI (UACC-257 melanoma): 37.4 µM | TGI (SK-OV-3 ovarian): 47.8 µM | TGI (786-0 renal): 29.8 µM | TGI (RXF 393 renal): 30 µM | TGI (SF-539 CNS): 31 µM | TGI (NCI-H460 lung): 31.5 µM | TGI (COLO 205 colon): 6.81 µM | TGI (UO-31 renal): 99.9 µM | TGI (BT-549 breast): 46.5 µM | TGI (SW-620 colon): 35.1 µM | TGI (KM12 colon): 41.2 µM | TGI (MDA-MB-435): 29.8 µM | TGI (DU-145 prostate): 45.4 µM | TGI (HCC-2998 colon): 4.48 µM | TGI (LOX IMVI melanoma): 24.1 µM | TGI (U251 CNS): 30.4 µM | TGI (SN12C renal): 42.1 µM | TGI (T-47D breast): 45 µM | TGI (MDA-N): 28.1 µM | TGI (A549 NSCLC): > 56.7 µM | TGI (K-562 leukemia): 27.9 µM | TGI (SR leukemia): 31.4 µM | TGI (OVCAR-4 ovarian): 50.3 µM | TGI (OVCAR-5 ovarian): 34.1 µM | TGI (SK-MEL-28 melanoma): 27.2 µM | TGI (NCI/ADR-RES ovarian): 42.1 µM | TGI (MALME-3M melanoma): 30.8 µM | TGI (IGROV1 ovarian): 45.9 µM | TGI (MCF7 breast): 35.5 µM

COC1(CC[C@H](C)COC2OC(CO)C(O)C(O)C2O)O[C@H]2C[C@H]3[C@@H]4CC=C5C[C@@H](OC6OC(CO)C(O)C(OC7OC(CO)C(O)C(O)C7O)C6OC6OC(C)C(O)C(O)C6O)CC[C@]5(C)[C@H]4CC[C@]3(C)[C@H]2[C@@H]1C (some centres undefined)
TGI (PC-3 prostate): 16.6 µM | TGI (SNB-19 CNS): 18.4 µM | TGI (SK-MEL-5 melanoma): 16.9 µM | TGI (HCT-15 colon): 7.43 µM | TGI (CAKI-1 renal): 10.4 µM | TGI (HOP-92 NSCLC): 10.1 µM | TGI (HCT-116 colon): > 32.4 µM | TGI (HOP-62 NSCLC): 12.4 µM | TGI (MDA-MB-231 breast): 15.5 µM | TGI (ACHN renal): 36.3 µM | TGI (TK-10 renal): > 69.7 µM | TGI (NCI-H522 lung): 7.41 µM | TGI (HS 578T breast): 24.6 µM | TGI (NCI-H226 lung): 18.6 µM | TGI (HT29 colon): > 21.8 µM | TGI (UACC-62 melanoma): > 39.2 µM | TGI (SK-MEL-2 melanoma): 25.2 µM | TGI (SF-295 CNS): 10.1 µM | TGI (RPMI-8226 leukemia): 23.6 µM | TGI (OVCAR-8 ovarian): 9.47 µM | TGI (EKVX NSCLC): > 51 µM | TGI (A498 renal): 34.5 µM | TGI (HL-60(TB) leukemia): 8.53 µM | TGI (OVCAR-3 ovarian): 33.1 µM | TGI (CCRF-CEM leukemia): > 32.9 µM | TGI (SNB-75 CNS): 7.25 µM | TGI (SF-268 CNS): 15.2 µM | TGI (NCI-H23 lung): 18.9 µM | TGI (MOLT-4 leukemia): > 27.3 µM | TGI (UACC-257 melanoma): 22 µM | TGI (SK-OV-3 ovarian): 24.5 µM | TGI (786-0 renal): 5.29 µM | TGI (RXF 393 renal): 16.3 µM | TGI (SF-539 CNS): 4.85 µM | TGI (NCI-H460 lung): 11.6 µM | TGI (COLO 205 colon): 16.2 µM | TGI (UO-31 renal): 4.36 µM | TGI (BT-549 breast): 22.5 µM | TGI (SW-620 colon): 5.87 µM | TGI (KM12 colon): 3.91 µM | TGI (MDA-MB-435): 4.24 µM | TGI (DU-145 prostate): 4.29 µM | TGI (HCC-2998 colon): 11.6 µM | TGI (LOX IMVI melanoma): 6.06 µM | TGI (U251 CNS): 4.02 µM | TGI (SN12C renal): > 31.1 µM | TGI (T-47D breast): 9.68 µM | TGI (MDA-N): 27 µM | TGI (A549 NSCLC): 7.27 µM | TGI (K-562 leukemia): > 47.9 µM | TGI (SR leukemia): > 100 µM | TGI (OVCAR-4 ovarian): 14.9 µM | TGI (OVCAR-5 ovarian): > 32.5 µM | TGI (SK-MEL-28 melanoma): 6.74 µM | TGI (NCI/ADR-RES ovarian): 25.7 µM | TGI (MALME-3M melanoma): 6.11 µM | TGI (IGROV1 ovarian): 11.8 µM | TGI (MCF7 breast): 37.7 µM
